From US20260069571A1, “DDR1 AND DDR2 INHIBITORS FOR THE TREATEMENT OF CANCER AND FIBROTIC DISEASES” (REDX PHARMA PLC, priority 2021, published 2026)

Columns and labels:
[1] = target: Recombinant human DDR1 (Homo sapiens (Human), UniProt Q08345); experiment: LanthaScreen Eu Kinase Binding Assay, DDR1; details: DDR1 2.5 nM (aa440-876, GST tag), Kinase Tracer 178 5 nM; for IC50: read-out: DDR1 pIC50 (converted)
Outline: (§1)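 GST-tagged kinase domains (DDR1 aa440-876 at 2.5 nM; DDR2 aa427-855 at 1.75 nM) were preincubated 30 min at room temperature with compound in HEPES pH 7.3 buffer. Then 1 nM Eu-anti-GST plus Tracer 178 (5 nM DDR1, 10 nM DDR2) were added; after 60 min, TR-FRET gave IC50 by four-parameter fit, ≥2 replicates.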

[2] = target: Recombinant human DDR2 (Homo sapiens (Human), UniProt Q16832); experiment: LanthaScreen Eu Kinase Binding Assay, DDR2; details: DDR2 1.75 nM (aa427-855, GST tag), Kinase Tracer 178 10 nM; for IC50: read-out: DDR2 pIC50 (converted)
Recombinant human DDR2, sequence (Q16832 427-855): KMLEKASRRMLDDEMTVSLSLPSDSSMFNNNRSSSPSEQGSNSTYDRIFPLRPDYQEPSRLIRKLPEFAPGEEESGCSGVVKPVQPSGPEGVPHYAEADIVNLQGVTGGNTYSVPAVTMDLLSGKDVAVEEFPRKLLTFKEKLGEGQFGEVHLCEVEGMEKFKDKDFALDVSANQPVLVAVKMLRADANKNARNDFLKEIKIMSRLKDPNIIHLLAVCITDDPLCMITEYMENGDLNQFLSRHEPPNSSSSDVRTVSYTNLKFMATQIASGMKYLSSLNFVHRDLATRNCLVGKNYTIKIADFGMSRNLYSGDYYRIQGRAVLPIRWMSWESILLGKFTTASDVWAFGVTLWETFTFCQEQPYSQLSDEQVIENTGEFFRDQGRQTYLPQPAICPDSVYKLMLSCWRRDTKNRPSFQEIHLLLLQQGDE
Outline: as §1

Recombinant human DDR1, sequence (Q08345 other isoform, or with tags, fused parts or gaps): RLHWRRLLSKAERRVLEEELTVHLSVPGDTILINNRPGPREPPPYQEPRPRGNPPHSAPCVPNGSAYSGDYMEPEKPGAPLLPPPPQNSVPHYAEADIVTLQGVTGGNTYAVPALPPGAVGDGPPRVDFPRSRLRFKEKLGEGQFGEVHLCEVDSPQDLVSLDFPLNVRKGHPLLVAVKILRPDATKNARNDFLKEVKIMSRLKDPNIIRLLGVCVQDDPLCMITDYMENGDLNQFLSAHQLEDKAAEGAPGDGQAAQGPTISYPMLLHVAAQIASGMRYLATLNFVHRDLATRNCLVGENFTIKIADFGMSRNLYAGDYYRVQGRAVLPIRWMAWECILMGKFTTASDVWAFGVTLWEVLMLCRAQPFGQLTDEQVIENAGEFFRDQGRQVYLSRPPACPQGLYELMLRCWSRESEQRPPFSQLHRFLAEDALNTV

SMILES | IC50 [1] | IC50 [2] | DDR2 pIC50 [2] | DDR1 pIC50 [1]
Cn1ncc2cc(Nc3cccc4c3C(=O)N(CC(=O)NCC(F)(F)F)C4(F)F)ccc21 [Example 79, 2-[1,1-difluoro-4-[(1-methylindazol-5-yl)amino]-3-oxo-isoindolin-2-yl]-N-(2,2,2-trifluoroethyl)acetamide] | 10 to 100 nM |  | D (pIC50≤6) | 
N#Cc1n[nH]c2ccc(Nc3cccc4c3C(=O)N(CC(=O)N3CCC[C@H]3C(F)(F)F)C4)cc12 [Example 82, 5-[[3-oxo-2-[2-oxo-2-[(2S)-(trifluoromethyl)pyrrolidin-1-yl]ethyl]isoindolin-4-yl]amino]-1H-indazole-3-carbonitrile] | 10 to 100 nM | ≥ 1000 nM |  | 
O=C1c2c(cccc2Nc2ccc3[nH]nc(F)c3c2)CN1CC(=O)N1CCC[C@H]1C(F)(F)F [Example 83, 7-[(3-fluoro-1H-indazol-5-yl)amino]-2-[2-oxo-2-[(2S)-(trifluoromethyl)pyrrolidin-1-yl]ethyl]isoindolin-1-one] | 10 to 100 nM | 10 to 100 nM |  | 
O=C1c2c(cccc2Nc2ccc3[nH]ncc3n2)CN1CC(=O)N1CCC[C@H]1C(F)(F)F [Example 84, 2-[2-oxo-2-[(2S)-(trifluoromethyl)pyrrolidin-1-yl]ethyl]-7-(1H-pyrazolo[4,3-b]pyridin-5-ylamino)isoindolin-1-one] | 10 to 100 nM | 100 to 1000 nM |  | 
Cn1ncc2nc(Nc3cccc4c3C(=O)N(CC(=O)N3CCC[C@H]3C(F)(F)F)C4)ccc21 [Example 85, 7-[(1-methylpyrazolo[4,3-b]pyridin-5-yl)amino]-2-[2-oxo-2-[(2S)-(trifluoromethyl)pyrrolidin-1-yl]ethyl]isoindolin-1-one] | 10 to 100 nM | 10 to 100 nM |  | 
CN(c1ccc2[nH]nc(C#N)c2c1)c1cccc2c1C(=O)N(CC(=O)N1CCC[C@H]1C(F)(F)F)C2 [Example 86, 5-[methyl-[3-oxo-2-[2-oxo-2-[(2S)-(trifluoromethyl)pyrrolidin-1-yl]ethyl]isoindolin-4-yl]amino]-1H-indazole-3-carbonitrile] | 10 to 100 nM | 10 to 100 nM |  | 
Cn1ncc2cc(Nc3cccc4c3C(=O)N(CC(=O)NCC(F)(F)F)C4)cc(F)c21 [Example 93, 2-[7-[(7-fluoro-1-methyl-indazol-5-yl)amino]-1-oxo-isoindolin-2-yl]-N-(2,2,2-trifluoroethyl)acetamide] |  | 10 to 100 nM |  | A (pIC50>8)
CN(c1ccc2c(cnn2C)c1)c1cccc2c1C(=O)N(CC(=O)N1CCC[C@H]1C(F)F)C2 [Example 95, 7-[methyl-(1-methylindazol-5-yl)amino]-2-[2-oxo-2-[(2S)-(difluoromethyl)pyrrolidin-1-yl]ethyl]isoindolin-1-one] | 10 to 100 nM | 10 to 100 nM |  | 
Cn1ncc2cc(Nc3cccc4c3C(=O)N(CC(=O)N3CCC[C@H]3C(F)(F)F)C4)cc(F)c21 [Example 96, 7-[(7-fluoro-1-methyl-indazol-5-yl)amino]-2-[2-oxo-2-[(2S)-(trifluoromethyl)pyrrolidin-1-yl]ethyl]isoindolin-1-one] |  |  | A (pIC50>8) | A (pIC50>8)
Cn1ncc2cc(Nc3nccc4c3C(=O)N(CC(=O)N3CCC[C@H]3C(F)(F)F)C4)ccc21 [Example 97, 4-[(1-methylindazol-5-yl)amino]-2-[2-oxo-2-[(2S)-(trifluoromethyl)pyrrolidin-1-yl]ethyl]-1H-pyrrolo[3,4-c]pyridin-3-one] | 10 to 100 nM | 100 to 1000 nM |  | 
Cn1ncc2cc(Nc3cccc4c3C(=O)N(CC(=O)Nc3cncc(C(F)(F)F)c3)C4)cnc21 [Example 99, 2-[7-[(1-methylpyrazolo[3,4-b]pyridin-5-yl)amino]-1-oxo-isoindolin-2-yl]-N-[5-(trifluoromethyl)-3-pyridyl]acetamide] | 10 to 100 nM | 10 to 100 nM |  | 
Cc1nn(C)c2ncc(Nc3cccc4c3C(=O)N(CC(=O)NCC(F)(F)F)C4)cc12 [Example 101, 2-[7-[(1,3-dimethylpyrazolo[3,4-b]pyridin-5-yl)amino]-1-oxo-isoindolin-2-yl]-N-(2,2,2-trifluoroethyl)acetamide] |  |  | D (pIC50≤6) | D (pIC50≤6)
Cc1nn(C)c2ncc(Nc3cccc4c3C(=O)N(CC(=O)N3CCC[C@H]3C(F)(F)F)C4)cc12 [Example 102, 7-[(1,3-dimethylpyrazolo[3,4-b]pyridin-5-yl)amino]-2-[2-oxo-2-[(2S)-(trifluoromethyl)pyrrolidin-1-yl]ethyl]isoindolin-1-one] | 10 to 100 nM | 100 to 1000 nM |  | 

Results, then the compound that gave them:

IC50 [1] | IC50 [2] | DDR2 pIC50 [2] | DDR1 pIC50 [1] | SMILES
10 to 100 nM | 10 to 100 nM |  |  | CN(CC(F)(F)F)C(=O)CN1Cc2cccc(Nc3cnc4[nH]ncc4c3)c2C1=O [Example 76, N-methyl-2-[1-oxo-7-(1H-pyrazolo[3,4-b]pyridin-5-ylamino)isoindolin-2-yl]-N-(2,2,2-trifluoroethyl)acetamide]
10 to 100 nM | 10 to 100 nM |  |  | C[C@H](N(C)C(=O)CN1Cc2cccc(Nc3cnc4[nH]ncc4c3)c2C1=O)C(F)(F)F [Example 77, N-methyl-2-[1-oxo-7-(1H-pyrazolo[3,4-b]pyridin-5-ylamino)isoindolin-2-yl]-N-[(1S)-2,2,2-trifluoro-1-methyl-ethyl]acetamide]
10 to 100 nM | 100 to 1000 nM |  |  | Cc1n[nH]c2cc(N(C)c3cccc4c3C(=O)N(CC(=O)NCC(F)(F)F)C4)ccc12 [Example 78, 2-[7-[methyl-(3-methyl-1H-indazol-6-yl)amino]-1-oxo-isoindolin-2-yl]-N-(2,2,2-trifluoroethyl)acetamide]
100 to 1000 nM | 100 to 1000 nM |  |  | CC(C)c1n[nH]c2cc(Nc3cccc4c3C(=O)N(CC(=O)NCC(F)(F)F)C4)ccc12 [Example 80, 2-[7-[(3-isopropyl-1H-indazol-6-yl)amino]-1-oxo-isoindolin-2-yl]-N-(2,2,2-trifluoroethyl)acetamide]
10 to 100 nM | 100 to 1000 nM |  |  | O=C(CN1Cc2cccc(Nc3ccc4cn[nH]c4c3)c2C1=O)NCC(F)(F)F [Example 81, 2-[7-(1H-indazol-6-ylamino)-1-oxo-isoindolin-2-yl]-N-(2,2,2-trifluoroethyl)acetamide]
10 to 100 nM | 10 to 100 nM |  |  | CN(c1cnc2[nH]ncc2c1)c1cccc2c1C(=O)N(CC(=O)N1CCC[C@H]1C(F)(F)F)C2 [Example 88, 7-[methyl(1H-pyrazolo[3,4-b]pyridin-5-yl)amino]-2-[2-oxo-2-[(2S)-(trifluoromethyl)pyrrolidin-1-yl]ethyl]isoindolin-1-one]
10 to 100 nM | 10 to 100 nM |  |  | C[C@H](NC(=O)CN1Cc2cccc(N(C)c3cnc4[nH]ncc4c3)c2C1=O)C(F)(F)F [Example 89, 2-[7-[methyl(1H-pyrazolo[3,4-b]pyridin-5-yl)amino]-1-oxo-isoindolin-2-yl]-N-[(1S)-2,2,2-trifluoro-1-methyl-ethyl]acetamide]
10 to 100 nM | 100 to 1000 nM |  |  | CN(c1cnc2[nH]ncc2c1)c1cccc2c1C(=O)N(CC(=O)NCC(F)(F)F)C2 [Example 90, 2-[7-[methyl(1H-pyrazolo[3,4-b]pyridin-5-yl)amino]-1-oxo-isoindolin-2-yl]-N-(2,2,2-trifluoroethyl)acetamide]
10 to 100 nM | 100 to 1000 nM |  |  | CN(c1ccc2[nH]nc(F)c2c1)c1cccc2c1C(=O)N(CC(=O)N1CCC[C@H]1C(F)(F)F)C2 [Example 92, 7-[(3-fluoro-1H-indazol-5-yl)-methyl-amino]-2-[2-oxo-2-[(2S)-(trifluoromethyl)pyrrolidin-1-yl]ethyl]isoindolin-1-one]
